Data on twelve molecules can be found in publication PMC4817154 (Scientific Reports, 2016).

“And” between values parts separate entries of the source, which are not always exact repeats. Equal values may be shown once.

In one data set the test system is NCCc1c[nH]c2ccc(O)cc12. Kind of data set: cells, lysate or membranes. Conditions: [3H]5-HT transport, T-REx-293 cells, average ± SEM, pH 7.4.
In another data set the target is ggSERT. Further details: method as in PMID 15271993. The note with it: read-out: published paroxetine Ki for inhibition of [3H]5-HT uptake; cited from earlier work.
Data set [1] deals with T1, dmSERT-G168A (Drosophila melanogaster, UniProt P51905, G168A).
T1 construct: expressed in transfected cells; host or cells: T-REx-293
Put plainly: cell-based.

In data set [2] the target is T2, dmSERT-F90Y (Drosophila melanogaster, UniProt P51905, F90Y).
T2 construct: expressed in transfected cells; host or cells: T-REx-293
Kind of data set: cell-based.

A further data set deals with T3, dmSERT-WT (Drosophila melanogaster, UniProt P51905).
T3 construct: expressed in transfected cells; host or cells: T-REx-293
T3 sequence (P51905 1-622): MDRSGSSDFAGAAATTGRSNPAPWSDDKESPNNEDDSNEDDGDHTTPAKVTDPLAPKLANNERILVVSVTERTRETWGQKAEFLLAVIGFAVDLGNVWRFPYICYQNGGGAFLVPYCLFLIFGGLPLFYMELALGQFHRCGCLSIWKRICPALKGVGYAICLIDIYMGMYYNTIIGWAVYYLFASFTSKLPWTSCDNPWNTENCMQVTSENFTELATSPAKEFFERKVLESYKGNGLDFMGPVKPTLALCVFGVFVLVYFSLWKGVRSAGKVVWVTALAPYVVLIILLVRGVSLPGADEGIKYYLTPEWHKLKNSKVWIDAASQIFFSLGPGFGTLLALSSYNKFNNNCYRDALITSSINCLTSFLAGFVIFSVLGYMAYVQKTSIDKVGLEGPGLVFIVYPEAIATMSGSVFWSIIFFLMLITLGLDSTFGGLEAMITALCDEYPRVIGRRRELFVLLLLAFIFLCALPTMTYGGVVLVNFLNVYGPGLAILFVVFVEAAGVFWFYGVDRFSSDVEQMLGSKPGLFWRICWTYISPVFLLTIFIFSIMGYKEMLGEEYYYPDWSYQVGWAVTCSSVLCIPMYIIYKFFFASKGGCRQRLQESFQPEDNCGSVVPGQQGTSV
Kind of data set: Paroxetine inhibition of [3H]5-HT transport. The format is cell-based.

Another data set has as its target LeuBAT-Δ13. Conditions: LeuBAT-Δ13 construct; cited from earlier work.
The target in data set [3] is T4, dmSERT-I492V (Drosophila melanogaster, UniProt P51905, I492V).
T4 construct: expressed in transfected cells; host or cells: T-REx-293
Put plainly: cell-based.

The target of data set [4] is T5, dmSERT-M167I (Drosophila melanogaster, UniProt P51905, M167I).
T5 construct: expressed in transfected cells; host or cells: T-REx-293
Kind of data set: cell-based.

Data set [5] addresses T6, dmSERT-N484E (Drosophila melanogaster, UniProt P51905, N484E).
T6 construct: expressed in transfected cells; host or cells: T-REx-293
Kind of data set: cell-based.

For another data set, the target named is dmSERT. Further details: method as in PMID 8197200, PMID 9677366. Conditions: read-out: published paroxetine Ki for inhibition of [3H]5-HT uptake; cited from earlier work.
The target in data set [6] is T7, dmSERT-P488T (Drosophila melanogaster, UniProt P51905, P488T).
T7 construct: expressed in transfected cells; host or cells: T-REx-293
Put plainly: cell-based.

Data set [7] deals with T8, dmSERT-D164A (Drosophila melanogaster, UniProt P51905, D164A).
T8 construct: expressed in transfected cells; host or cells: T-REx-293
Put plainly: cell-based.

Another data set deals with hsSERT-Y95F (Homo sapiens, UniProt P31645, Y95F). The note with it: cited from earlier work.
Data set [8] has as its target T8, dmSERT-D164A. The format is cell-based.
A further data set concerns the target ggSERT-WT (Gallus gallus, UniProt Q6PWI2). Kind of data set: Steady-state kinetics of [3H]5-HT transport. The format is cell-based, chicken (Gallus gallus). An excerpt:
(§1) Control cells were transfected with empty vector.

Data set [9] deals with T1, dmSERT-G168A. Type of data set: cell-based.
Data set [10] concerns the target T7, dmSERT-P488T. Type of data set: cell-based.
Data set [11] has as its target T5, dmSERT-M167I. The format is cell-based.
Data set [12] deals with T6, dmSERT-N484E. Type of data set: cell-based.
Data set [13] concerns the target T4, dmSERT-I492V. The format is cell-based.
In data set [14] the target is T2, dmSERT-F90Y. Type of data set: cell-based.
Substrate in data set [15]: NCCc1c[nH]c2ccc(O)cc12
Kind of data set: cells, lysate or membranes. Conditions: [3H]5-HT transport, T-REx-293 cells, average ± SEM, pH 7.4. The format is cell-based, chicken (Gallus gallus).
From the text: as §1

On to “dmSERT-F90Y (Drosophila melanogaster; F90Y)”, for which, in the data set with NCCc1c[nH]c2ccc(O)cc12 (other: dmSERT-F90Y), the Michaelis-Menten constant (Km) is 1,784 ± 121 nM and the Vmax is reported as 70.9 ± 2.7 pmol/min/mg total cell protein.

Take `Fc1ccc([C@@H]2CCNC[C@H]2COc2ccc3c(c2)OCO3)cc1` [Paroxetine, (3S,4R)-3-[(2H-1,3-benzodioxol-5-yloxy)methyl]-4-(4-fluorophenyl)piperidine]: the Ki on ggSERT is 397 nM; on dmSERT-G168A [1] it was 2.78 ± 0.66 nM; at dmSERT-F90Y [2] it was 5.26 ± 0.93 nM; on dmSERT-WT (Ki, dmSERT-WT, from IC50 and Km via Cheng-Prusoff), 6.04 ± 1.33 nM; on dmSERT-I492V [3], 16.2 ± 1.2 nM; at dmSERT-M167I [4] it was 2.68 ± 0.29 nM. In addition, the Ki was 1.83 ± 0.21 nM at dmSERT-N484E [5]; 3.4 nM on dmSERT; 20.3 ± 1.85 nM at dmSERT-P488T [6]; 0.9 nM and 0.86 nM at dmSERT-D164A [7] (Ki, dmSERT-D164A, from IC50 and Km via Cheng-Prusoff). Besides, the IC50 at dmSERT-G168A [1] was found to be 2.8 ± 0.66 nM; against dmSERT-F90Y [2] it was 5.31 ± 0.94 nM; against dmSERT-WT it was 6.1 ± 1.35 nM; against dmSERT-I492V [3] it was 16.3 ± 1.2 nM; against dmSERT-M167I [4], 2.71 ± 0.29 nM; on dmSERT-N484E [5] it was 1.9 ± 0.22 nM. The values for the IC50 against dmSERT-P488T [6] and against dmSERT-D164A [7] were 20.5 ± 1.86 nM and 0.86 ± 0.07 nM, respectively. Besides, on LeuBAT-Δ13, the Kd was about 430 nM.

In the case of “dmSERT-P488T (Drosophila melanogaster; P488T)”, in the data set with NCCc1c[nH]c2ccc(O)cc12 (other: dmSERT-P488T), the Michaelis constant (Km) is given as 2,737 ± 277 nM and the Vmax is 9.8 ± 0.2 pmol/min/mg total cell protein.

For the molecule `OC1(c2ccc(Cl)cc2)c2ccccc2C2=NCCN21` (stereo not drawn) [mazindol], on hsSERT-Y95F, the change in potency entry was “increase”.

On to “dmSERT-G168A (Drosophila melanogaster; G168A)”, for which, in the data set on NCCc1c[nH]c2ccc(O)cc12 (other: dmSERT-G168A), the Km is 3,342 ± 272 nM and the Vmax is 213.4 ± 39.9 pmol/min/mg total cell protein.

As to “dmSERT-I492V (Drosophila melanogaster; I492V)”, in the data set on NCCc1c[nH]c2ccc(O)cc12 (other: dmSERT-I492V), the Km is given as 3,281 ± 357 nM and the Vmax is reported as 58.0 ± 5.7 pmol/min/mg total cell protein.

For the molecule “dmSERT-M167I (Drosophila melanogaster; M167I)”, in the data set with NCCc1c[nH]c2ccc(O)cc12 (other: dmSERT-M167I), the Michaelis-Menten constant (Km) is listed as 1,487 ± 132 nM and the Vmax was 51.6 ± 14.3 pmol/min/mg total cell protein.

Consider “dmSERT-D164A (Drosophila melanogaster; D164A)”, for which, in the data set on NCCc1c[nH]c2ccc(O)cc12 (other: dmSERT-D164A), the Km is recorded as 10,258 ± 756 nM and the Vmax is listed as 87.9 ± 6.8 pmol/min/mg total cell protein.

In the case of “dmSERT-N484E (Drosophila melanogaster; N484E)”, in the data set with NCCc1c[nH]c2ccc(O)cc12 (other: dmSERT-N484E), the Km is reported as 522 ± 67 nM and the Vmax is 5.2 ± 1.2 pmol/min/mg total cell protein.

As for `NCCc1c[nH]c2ccc(O)cc12` [5-HT, 5-hydroxytryptamine], the “% wt Vmax” value on dmSERT-D164A [8] came to 136.0 ± 10.6%; at ggSERT-WT, 100 ± 9.6%; on dmSERT-G168A [9], 330.3 ± 61.7%; at dmSERT-P488T [10], 15.1 ± 0.3%; at dmSERT-M167I [11], 79.9 ± 22.1%; on dmSERT-N484E [12], 8.0 ± 1.8%. Besides, the “% wt Vmax” value at dmSERT-I492V [13] was found to be 89.8 ± 8.8%; at dmSERT-F90Y [14], 109.7 ± 4.2%.

B1: ggSERT-WT (Gallus gallus) (protein)
chain: MENKATSNETQPLTSKKGISDCNEGEDCKENGLLIRNPKSALRLVDDGNKVHPGQGDKEEAAQISNGYSGVQSSGPCSGMGEAEDAQCTAPAATTTTTTTTSTTCGAEGQQQLMELGDRETWSKKIDFLLSVIGYAVDLGNVWRFPYICYQNGGGAFLIPYTIMAIFGGIPLFYMELALGQYHRNGCISIWRKICPIFKGIGFAICIIDLYVASYYNTIMAWVFYYLVSSFTTELPWTSCNNAWNTGNCTTYFSKDNISWALHSISPAEEFYTRQVLQVHRSNGLDDLGGISWQLTLCLLLIFIIVYFSIWKGVKTSGKVVWVTATFPYVILFILLVRGATLPGAWRGVLYYLKPEWQKLLATEVWVDAAAQIFFSLGPGFGVLLAYASYNKFHNNCYQDALVTSTVNCLTSFVSGFVIFTVLGYMAEMRNEDVSEVAKDMGPSLLFITYAEAIANMPASTFFAIIFFLMLLTLGLDSTFAGLEGVITGVLDEFPHVWSKRREFFVLGLIIICFLGSLATLTFGGAYVVKLFEEYATGPAVLTVVFLEAVAVAWFYGITQFCNDVKEMLGFAPGWYWRVCWVAISPIFLLFVTCSFLSNPPELRLFDYNYPYWTTVVGYCIGTSSIICIPIYMAYRLIITPGTLKERILKSITPETATEIPFGDIRMNAV
Turning to B1, in data set [15] (other: ggSERT-WT), the Vmax is 18.4 ± 1.8 pmol/min/mg total cell protein.

B2: ggSERT-D209A (Gallus gallus; D209A) (protein)
chain: MENKATSNETQPLTSKKGISDCNEGEDCKENGLLIRNPKSALRLVDDGNKVHPGQGDKEEAAQISNGYSGVQSSGPCSGMGEAEDAQCTAPAATTTTTTTTSTTCGAEGQQQLMELGDRETWSKKIDFLLSVIGYAVDLGNVWRFPYICYQNGGGAFLIPYTIMAIFGGIPLFYMELALGQYHRNGCISIWRKICPIFKGIGFAICIIALYVASYYNTIMAWVFYYLVSSFTTELPWTSCNNAWNTGNCTTYFSKDNISWALHSISPAEEFYTRQVLQVHRSNGLDDLGGISWQLTLCLLLIFIIVYFSIWKGVKTSGKVVWVTATFPYVILFILLVRGATLPGAWRGVLYYLKPEWQKLLATEVWVDAAAQIFFSLGPGFGVLLAYASYNKFHNNCYQDALVTSTVNCLTSFVSGFVIFTVLGYMAEMRNEDVSEVAKDMGPSLLFITYAEAIANMPASTFFAIIFFLMLLTLGLDSTFAGLEGVITGVLDEFPHVWSKRREFFVLGLIIICFLGSLATLTFGGAYVVKLFEEYATGPAVLTVVFLEAVAVAWFYGITQFCNDVKEMLGFAPGWYWRVCWVAISPIFLLFVTCSFLSNPPELRLFDYNYPYWTTVVGYCIGTSSIICIPIYMAYRLIITPGTLKERILKSITPETATEIPFGDIRMNAV
For the molecule B2, in data set [15] (other: ggSERT-D209A), the Km was 0.971 ± 0.071 µM and the Vmax is 73.8 ± 21.5 pmol/min/mg total cell protein.

By Km is commonly meant the substrate concentration at which the rate is half of its maximum. Usually Ki stands for the equilibrium dissociation constant of an inhibitor or competing ligand from its target. As a reminder, the IC50 is the midpoint of a concentration-inhibition curve. A higher IC50 goes with weaker potency. The Kd is the equilibrium constant for the complex coming apart.
